A short description of the data set: Circular dichroism spectroscopy of helical structure (benign buffer and 50% TFE). Format: physicochemical. Particulars: 25° C.; for % helix 50% TFE / % helix Benign: relative to NAL in 50% TFE; for [θ]222 Benign: benign buffer (100 mM KCl, 50 mM PO4 pH 7.0); for [θ]222 50% TFE: benign buffer diluted 1:1 (v/v) with TFE; for % helix Benign: benign buffer. The method, then:
To determine the secondary structure of peptides in different environments, circular dichroism (CD) spectra of the peptide analogs were measured under physiologically related pH and ionic strength (100 mM KCl, 50 mM aq. PO4, pH 7 referred to as benign conditions) and also in 50% TFE to mimic the hydrophobic environment of the membrane. […] On the non-polar face, the native L-Val residue was critical in maintaining α-helical structure. […] Even the substitution with L-Ala, which is known to have the highest α-helical propensity of all 20 amino acids (34), could not stabilize the α-helical structure. […] It is noteworthy that, on the non-polar face, the magnitude of the helical content of L-peptides in benign buffer was related to the hydrophobicity of the substituting amino acids, i.e., NLL>NVL>NAL>NSL, NKL, again showing the importance of hydrophobicity on the non-polar face in maintaining the α-helical structure. […] However, whether L- or D-substitutions were made on the non-polar face, high helical structure could be induced by the hydrophobic environment of 50% TFE, a mimic of the membrane's hydrophobicity and α-helix inducing ability (Table 3).
To determine the secondary structure of the D-enantiomeric peptides in different environments, CD spectra of the peptide analogs were measured under benign conditions (100 mM KCl, 50 mM KH2PO4/K2HPO4, pH 7.4, referred to as KP buffer) and also in 50% trifluoroethanol (TFE) to mimic the hydrophobic environment of the membrane. […] However, in the presence of 50% TFE, all three L-peptides were fully folded α-helical structures with similar ellipticities and helicity (Table 4).
Characterization of Helical Structure—The mean residue molar ellipticities of peptides were determined by circular dichroism (CD) spectroscopy, using a Jasco J-720 spectropolarimeter (Jasco, Easton, Md.), at 25° C. under benign conditions (50 mM KH2PO4/K2HPO4/100 mM KCl, pH 7), as well as in the presence of an α-helix inducing solvent, 2,2,2-trifluoroethanol (TFE) (50 mM KH2PO4/K2HPO4/100 mM KCl, pH 7 buffer/50% TFE). A 10-fold dilution of a ˜500 μM stock solution of the peptide analogs was loaded into a 0.02 cm fused silica cell and its ellipticity scanned from 190 to 250 nm. The values of molar ellipticities of the peptide analogs at a wavelength of 222 nm were used to estimate the relative α-helicity of the peptides.

Square brackets hold non-standard residues; d marks the D form. Peptide text beside a SMILES is read from it.

Regarding `CC[C@H](C)[C@H](NC(=O)[C@H](C)NC(=O)[C@H](CCCCN)NC(=O)[C@H](CC(C)C)NC(=O)[C@H](C)NC(=O)[C@@H](NC(=O)[C@H](Cc1c[nH]cn1)NC(=O)[C@H](CC(C)C)NC(=O)[C@@H](NC(=O)[C@@H](NC(=O)[C@H](CCCCN)NC(=O)[C@H](NC(=O)[C@H](C)NC(=O)[C@H](CO)NC(=O)[C@H](CCCCN)NC(=O)[C@H](Cc1ccccc1)NC(=O)[C@@H](NC(=O)[C@H](CCCCN)NC(=O)[C@H](CC(C)C)NC(=O)[C@H](Cc1ccccc1)NC(=O)[C@H](CO)NC(=O)[C@H](CCCCN)NC(=O)[C@H](Cc1c[nH]c2ccccc12)NC(=O)[C@H](CCCCN)NC(C)=O)[C@@H](C)O)C(C)C)[C@@H](C)O)C(C)C)[C@@H](C)O)C(=O)N[C@@H](CO)C(=O)N[C@@H](CO)C(N)=O` [NVD], the “% helix 50% TFE” value was found to be 90%, the “[θ]222 Benign” value is on record as −2,800 deg · cm^2 · dmol^−1, the “[θ]222 50% TFE” value was −26,000 deg · cm^2 · dmol^−1 and the “% helix Benign” value was 10%.

With Ac-KWKSFLKTFKSASKTVLHTALKAISS-NH2 [NSL], the “% helix 50% TFE” value was 95%, the “[θ]222 Benign” value is −1,300 deg · cm^2 · dmol^−1, the “[θ]222 50% TFE” value was −27,550 deg · cm^2 · dmol^−1 and the “% helix Benign” value turned out to be 4%.

For the compound `CC[C@H](C)[C@H](NC(=O)[C@H](C)NC(=O)[C@H](CCCCN)NC(=O)[C@H](CC(C)C)NC(=O)[C@H](C)NC(=O)[C@@H](NC(=O)[C@H](Cc1c[nH]cn1)NC(=O)[C@H](CC(C)C)NC(=O)[C@@H](NC(=O)[C@@H](NC(=O)[C@H](CCCCN)NC(=O)[C@@H](NC(=O)[C@H](C)NC(=O)[C@@H](CCCCN)NC(=O)[C@H](CCCCN)NC(=O)[C@H](Cc1ccccc1)NC(=O)[C@@H](NC(=O)[C@H](CCCCN)NC(=O)[C@H](CC(C)C)NC(=O)[C@H](Cc1ccccc1)NC(=O)[C@H](CO)NC(=O)[C@H](CCCCN)NC(=O)[C@H](Cc1c[nH]c2ccccc12)NC(=O)[C@H](CCCCN)NC(C)=O)[C@@H](C)O)C(C)C)[C@@H](C)O)C(C)C)[C@@H](C)O)C(=O)N[C@@H](CO)C(=O)N[C@@H](CO)C(N)=O` [PKD] (Ac-KWKSFLKTFK[dK]AVKTVLHTALKAISS-NH2), the “% helix 50% TFE” value is 96%, the “[θ]222 Benign” value was −2,500 deg · cm^2 · dmol^−1, the “[θ]222 50% TFE” value is listed as −27,800 deg · cm^2 · dmol^−1 and the “% helix Benign” value stood at 9%.

As to `CC[C@H](C)[C@H](NC(=O)[C@H](C)NC(=O)[C@H](CCCCN)NC(=O)[C@H](CC(C)C)NC(=O)[C@H](C)NC(=O)[C@@H](NC(=O)[C@H](Cc1c[nH]cn1)NC(=O)[C@H](CC(C)C)NC(=O)[C@@H](NC(=O)[C@@H](NC(=O)[C@H](CCCCN)NC(=O)[C@@H](NC(=O)[C@H](C)NC(=O)[C@@H](CC(C)C)NC(=O)[C@H](CCCCN)NC(=O)[C@H](Cc1ccccc1)NC(=O)[C@@H](NC(=O)[C@H](CCCCN)NC(=O)[C@H](CC(C)C)NC(=O)[C@H](Cc1ccccc1)NC(=O)[C@H](CO)NC(=O)[C@H](CCCCN)NC(=O)[C@H](Cc1c[nH]c2ccccc12)NC(=O)[C@H](CCCCN)NC(C)=O)[C@@H](C)O)C(C)C)[C@@H](C)O)C(C)C)[C@@H](C)O)C(=O)N[C@@H](CO)C(=O)N[C@@H](CO)C(N)=O` [PLD] (Ac-KWKSFLKTFK[dL]AVKTVLHTALKAISS-NH2), the “% helix 50% TFE” value was found to be 90%, the “[θ]222 Benign” value is given as −2,950 deg · cm^2 · dmol^−1, the “[θ]222 50% TFE” value is reported as −26,100 deg · cm^2 · dmol^−1 and the “% helix Benign” value was determined as 10%.

Take `CC[C@H](C)[C@H](NC(=O)[C@H](C)NC(=O)[C@H](CCCCN)NC(=O)[C@H](CC(C)C)NC(=O)[C@H](C)NC(=O)[C@@H](NC(=O)[C@H](Cc1c[nH]cn1)NC(=O)[C@H](CC(C)C)NC(=O)[C@@H](NC(=O)[C@@H](NC(=O)[C@H](CCCCN)NC(=O)[C@@H](CCCCN)NC(=O)[C@H](C)NC(=O)[C@H](CO)NC(=O)[C@H](CCCCN)NC(=O)[C@H](Cc1ccccc1)NC(=O)[C@@H](NC(=O)[C@H](CCCCN)NC(=O)[C@H](CC(C)C)NC(=O)[C@H](Cc1ccccc1)NC(=O)[C@H](CO)NC(=O)[C@H](CCCCN)NC(=O)[C@H](Cc1c[nH]c2ccccc12)NC(=O)[C@H](CCCCN)NC(C)=O)[C@@H](C)O)[C@@H](C)O)C(C)C)[C@@H](C)O)C(=O)N[C@@H](CO)C(=O)N[C@@H](CO)C(N)=O` [NKD]: the “% helix 50% TFE” value is listed as 82%, the “[θ]222 Benign” value is −2,000 deg · cm^2 · dmol^−1, the “[θ]222 50% TFE” value is listed as −23,600 deg · cm^2 · dmol^−1 and the “% helix Benign” value amounted to 7%.

On to `CC[C@H](C)[C@H](NC(=O)[C@H](C)NC(=O)[C@H](CCCCN)NC(=O)[C@H](CC(C)C)NC(=O)[C@H](C)NC(=O)[C@@H](NC(=O)[C@H](Cc1c[nH]cn1)NC(=O)[C@H](CC(C)C)NC(=O)[C@@H](NC(=O)[C@@H](NC(=O)[C@H](CCCCN)NC(=O)[C@H](C)NC(=O)[C@H](C)NC(=O)[C@H](CO)NC(=O)[C@H](CCCCN)NC(=O)[C@H](Cc1ccccc1)NC(=O)[C@@H](NC(=O)[C@H](CCCCN)NC(=O)[C@H](CC(C)C)NC(=O)[C@H](Cc1ccccc1)NC(=O)[C@H](CO)NC(=O)[C@H](CCCCN)NC(=O)[C@H](Cc1c[nH]c2ccccc12)NC(=O)[C@H](CCCCN)NC(C)=O)[C@@H](C)O)[C@@H](C)O)C(C)C)[C@@H](C)O)C(=O)N[C@@H](CO)C(=O)N[C@@H](CO)C(N)=O` [NAL], for which the “% helix 50% TFE” value is on record as 100%, the “[θ]222 50% TFE” value is reported as −28,950 deg · cm^2 · dmol^−1 and the “% helix Benign” value came out at 12%.

Consider `CC[C@H](C)[C@H](NC(=O)[C@H](C)NC(=O)[C@H](CCCCN)NC(=O)[C@H](CC(C)C)NC(=O)[C@H](C)NC(=O)[C@@H](NC(=O)[C@H](Cc1c[nH]cn1)NC(=O)[C@H](CC(C)C)NC(=O)[C@@H](NC(=O)[C@@H](NC(=O)[C@H](CCCCN)NC(=O)[C@@H](NC(=O)[C@H](C)NC(=O)[C@@H](C)NC(=O)[C@H](CCCCN)NC(=O)[C@H](Cc1ccccc1)NC(=O)[C@@H](NC(=O)[C@H](CCCCN)NC(=O)[C@H](CC(C)C)NC(=O)[C@H](Cc1ccccc1)NC(=O)[C@H](CO)NC(=O)[C@H](CCCCN)NC(=O)[C@H](Cc1c[nH]c2ccccc12)NC(=O)[C@H](CCCCN)NC(C)=O)[C@@H](C)O)C(C)C)[C@@H](C)O)C(C)C)[C@@H](C)O)C(=O)N[C@@H](CO)C(=O)N[C@@H](CO)C(N)=O` [PAD] (Ac-KWKSFLKTFK[dA]AVKTVLHTALKAISS-NH2), for which the “% helix 50% TFE” value was 94%, the “[θ]222 Benign” value was −3,050 deg · cm^2 · dmol^−1, the “[θ]222 50% TFE” value is −27,300 deg · cm^2 · dmol^−1 and the “% helix Benign” value amounted to 11%.

Consider `CC[C@H](C)[C@H](NC(=O)[C@H](C)NC(=O)[C@H](CCCCN)NC(=O)[C@H](CC(C)C)NC(=O)[C@H](C)NC(=O)[C@@H](NC(=O)[C@H](Cc1c[nH]cn1)NC(=O)[C@H](CC(C)C)NC(=O)[C@@H](NC(=O)[C@@H](NC(=O)[C@H](CCCCN)NC(=O)[C@@H](NC(=O)[C@H](C)NC(=O)[C@@H](CO)NC(=O)[C@H](CCCCN)NC(=O)[C@H](Cc1ccccc1)NC(=O)[C@@H](NC(=O)[C@H](CCCCN)NC(=O)[C@H](CC(C)C)NC(=O)[C@H](Cc1ccccc1)NC(=O)[C@H](CO)NC(=O)[C@H](CCCCN)NC(=O)[C@H](Cc1c[nH]c2ccccc12)NC(=O)[C@H](CCCCN)NC(C)=O)[C@@H](C)O)C(C)C)[C@@H](C)O)C(C)C)[C@@H](C)O)C(=O)N[C@@H](CO)C(=O)N[C@@H](CO)C(N)=O` [PSD], for which the “% helix 50% TFE” value worked out at 90%, the “[θ]222 Benign” value is −2,800 deg · cm^2 · dmol^−1, the “[θ]222 50% TFE” value was −26,000 deg · cm^2 · dmol^−1 and the “% helix Benign” value is listed as 10%.

In the case of `CC[C@H](C)[C@H](NC(=O)[C@H](C)NC(=O)[C@H](CCCCN)NC(=O)[C@H](CC(C)C)NC(=O)[C@H](C)NC(=O)[C@@H](NC(=O)[C@H](Cc1c[nH]cn1)NC(=O)[C@H](CC(C)C)NC(=O)[C@@H](NC(=O)[C@@H](NC(=O)[C@H](CCCCN)NC(=O)[C@@H](CO)NC(=O)[C@H](C)NC(=O)[C@H](CO)NC(=O)[C@H](CCCCN)NC(=O)[C@H](Cc1ccccc1)NC(=O)[C@@H](NC(=O)[C@H](CCCCN)NC(=O)[C@H](CC(C)C)NC(=O)[C@H](Cc1ccccc1)NC(=O)[C@H](CO)NC(=O)[C@H](CCCCN)NC(=O)[C@H](Cc1c[nH]c2ccccc12)NC(=O)[C@H](CCCCN)NC(C)=O)[C@@H](C)O)[C@@H](C)O)C(C)C)[C@@H](C)O)C(=O)N[C@@H](CO)C(=O)N[C@@H](CO)C(N)=O` [NSD] (Ac-KWKSFLKTFKSA[dS]KTVLHTALKAISS-NH2), the “% helix 50% TFE” value amounted to 77%, the “[θ]222 Benign” value is on record as −1,700 deg · cm^2 · dmol^−1, the “[θ]222 50% TFE” value is reported as −22,200 deg · cm^2 · dmol^−1 and the “% helix Benign” value is listed as 6%.
